Test results published in patent publication US20240166681A1, “3'3' CYCLIC DINUCLEOTIDES CONTAINING ISONUCLEOTIDIC UNITS” (INSTITUTE OF ORGANIC CHEMISTRY AND BIOCHEMISTRY AS CR, V. …, priority 2021, published 2024).
Where two headings read alike, the source gives them in different places.

Legend:
[1] = target: WT STING (Homo sapiens, UniProt Q86WV6, H232R); experiment: 293T WT STING standard reporter assay; assay type: cell-based; set-up: host or cells: 293T (ATCC CRL-3216), stably transfected; settings: 293T wtSTING-FL cells, no digitonin, 7 h incubation, luciferase reporter
Sequence of WT STING (Q86WV6 whole entry H232R): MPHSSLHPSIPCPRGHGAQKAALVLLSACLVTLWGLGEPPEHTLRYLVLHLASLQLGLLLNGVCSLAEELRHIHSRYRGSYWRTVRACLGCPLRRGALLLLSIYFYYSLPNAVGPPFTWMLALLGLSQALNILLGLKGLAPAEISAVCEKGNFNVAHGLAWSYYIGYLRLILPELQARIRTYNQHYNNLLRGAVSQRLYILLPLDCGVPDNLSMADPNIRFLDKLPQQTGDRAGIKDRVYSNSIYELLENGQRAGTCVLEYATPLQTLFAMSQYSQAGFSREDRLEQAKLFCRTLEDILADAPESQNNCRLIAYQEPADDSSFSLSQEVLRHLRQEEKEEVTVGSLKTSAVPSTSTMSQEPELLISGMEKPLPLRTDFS
Procedure: After 5 minutes incubation at room temperature (RT), 250 μL of the mixture was added dropwise to the cells in one well. Cells were incubated 36 hours at 37° C. with 5% CO2, and then detached with 0.05% Trypsin and 0.22 g/L EDTA (both cat. #L0941, Biowest, Riverside, USA).
Transfected cells were seeded onto poly-D-lysine coated six well plates at density 50,000 cells per 1 cm^2 in DMEM medium with high glucose containing 10% heat inactivated FBS, 30 μg/mL blasticidin (cat. #ant-b1-05, InvivoGen, San Diego, USA), 0.06 mg/ml Penicillin G and 0.1 mg/ml Streptomycin Sulfate (both cat. #. L0018, Biowest, Riverside, USA). The medium was replenished every 3-4 days until visible colonies of cells resistant to blasticidin were formed.
Blasticidin resistant cells stably expressing WT STING were further transfected with […] plasmid following the same procedure as described above. […] Homogeneous culture of stably double transfected cells was prepared by limiting dilution of cells in 96 well plates and wells with cells were selected that originated from a single cell.
The medium was removed next day and three-fold serial dilutions of compounds in 100 μl medium were added to the cells. The plates with cells were incubated for 7 hours at 37° C. with 5% CO2. After 50 μl of the medium was removed, 30 μl of ONE-Glo™ Luciferase Assay System reagent (cat. #E6120, Promega, Madison, USA) was added to each well and luminescence was read on Synergy H1 (Biotek, Winooski, USA). […] (cat. #tlrl-nacga23), and 2′2′-cGAMP (cat. #tlrl-nacga22) were purchased from Invivogen (San Diego, USA).

[2] = test system: peripheral blood mononuclear cell (PBMC); experiment: Peripheral blood mononuclear cell assay (cytokine levels); assay type: cell-based; settings: 1 h with compound, wash, 15 h, average of at least two donors
Procedure: Selected compounds were tested in an in vitro peripheral blood mononuclear cell (PBMC) assay. Freshly isolated PBMCs were seeded into U-shaped shaped 96-well plates at desity 500,000 cells per well in 50 μl of RPMI 1640 medium supplemented with 10% heat inactivated FBS. Serially dilluted tested compounds were added to wells in 50 μl of cultivation medium and cell were incubated with compounds for 1 h at 37° C. with 5% CO2. Plates with cells were then spun 500 g for 5 minutes and medium was removed. Cells were washed twice with the cell culture medium by the use of centrifugation and gently resuspended in 100 μl medium without compounds. After 15 hour incubation at 37° C. with 5% CO2, the cell culture medium was collected and the levels of interferon-alpha (INF-α), interferon-gamma (INF-γ) and tumor necrosis factor-alpha (TNF-α) were determined with ProcartaPlex Assays (ThermoFisher, Waltham, USA) and MAGPIX System (Merck KGaA, Darmstadt, Germany). GraphPad Prism (San Diego, CA, USA) was used to calculate the 50% effective concentration (EC50) from a 6-point dose-response curve. Values reported are an average of runs from at least two donors.

Compound	EC50 [1] [nM]	EC50 ([2]; read-out: PBMC EC50 IFN-α) [nM]	EC50 ([2]; read-out: PBMC EC50 IFN-γ) [nM]	EC50 ([2]; read-out: PBMC EC50 TNF-α) [nM]
CC(C)(C)C(=O)OCOP1(=O)OC[C@H]2OC[C@@H](n3cnc4c(N)ncnc43)[C@@H]2OP(=O)(OCOC(=O)C(C)(C)C)OC[C@H]2O[C@@H](n3cnc4c(N)ncnc43)[C@H](F)[C@@H]2O1 (single isomer, unassigned) [Compound 36a]	88	–	–	–
CC(C)(C)C(=O)OCOP1(=O)OC[C@H]2OC[C@@H](n3cnc4c(N)ncnc43)[C@@H]2OP(=O)(OCOC(=O)C(C)(C)C)OC[C@H]2O[C@@H](n3cnc4c(N)ncnc43)[C@H](F)[C@@H]2O1 (single isomer, unassigned) [Compound 36b]	77	–	–	–
CC(C)(C)C(=O)OCOP1(=O)OC[C@H]2OC[C@@H](n3cnc4c(N)ncnc43)[C@@H]2OP(=O)(OCOC(=O)C(C)(C)C)OC[C@H]2O[C@@H](n3cnc4c(N)ncnc43)[C@H](F)[C@@H]2O1 (single isomer, unassigned) [Compound 36c]	52	–	–	–
CC(C)(C)C(=O)OCOP1(=O)OC[C@H]2OC[C@@H](n3cnc4c(N)ncnc43)[C@@H]2OP(=O)(OCOC(=O)C(C)(C)C)OC[C@H]2O[C@@H](n3cnc4c(N)ncnc43)[C@H](F)[C@@H]2O1 (single isomer, unassigned) [Compound 36d]	28	184	115	326
CC1(C(=O)OCOP2(=O)OC[C@H]3OC[C@@H](n4cnc5c(N)ncnc54)[C@@H]3OP(=O)(OCOC(=O)C3(C)CCCCC3)OC[C@H]3O[C@@H](n4cnc5c(N)ncnc54)[C@H](F)[C@@H]3O2)CCCCC1 (single isomer, unassigned) [Compound 56a]	285	–	–	–
CC1(C(=O)OCOP2(=O)OC[C@H]3OC[C@@H](n4cnc5c(N)ncnc54)[C@@H]3OP(=O)(OCOC(=O)C3(C)CCCCC3)OC[C@H]3O[C@@H](n4cnc5c(N)ncnc54)[C@H](F)[C@@H]3O2)CCCCC1 (single isomer, unassigned) [Compound 56b]	44	–	–	–
CC1(C(=O)OCOP2(=O)OC[C@H]3OC[C@@H](n4cnc5c(N)ncnc54)[C@@H]3OP(=O)(OCOC(=O)C3(C)CCCCC3)OC[C@H]3O[C@@H](n4cnc5c(N)ncnc54)[C@H](F)[C@@H]3O2)CCCCC1 (single isomer, unassigned) [Compound 56c]	21	–	–	–
CC1(C(=O)OCOP2(=O)OC[C@H]3OC[C@@H](n4cnc5c(N)ncnc54)[C@@H]3OP(=O)(OCOC(=O)C3(C)CCCCC3)OC[C@H]3O[C@@H](n4cnc5c(N)ncnc54)[C@H](F)[C@@H]3O2)CCCCC1 (single isomer, unassigned) [Compound 56d]	41	325	48	159
CCC(C)(C)C(=O)OCOP1(=O)OC[C@H]2OC[C@@H](n3cnc4c(N)ncnc43)[C@@H]2OP(=O)(OCOC(=O)C(C)(C)CC)OC[C@H]2O[C@@H](n3cnc4c(N)ncnc43)[C@H](F)[C@@H]2O1 (single isomer, unassigned) [Compound 57a]	32	–	–	–
CCC(C)(C)C(=O)OCOP1(=O)OC[C@H]2OC[C@@H](n3cnc4c(N)ncnc43)[C@@H]2OP(=O)(OCOC(=O)C(C)(C)CC)OC[C@H]2O[C@@H](n3cnc4c(N)ncnc43)[C@H](F)[C@@H]2O1 (single isomer, unassigned) [Compound 57b]	18	–	–	–
CCC(C)(C)C(=O)OCOP1(=O)OC[C@H]2OC[C@@H](n3cnc4c(N)ncnc43)[C@@H]2OP(=O)(OCOC(=O)C(C)(C)CC)OC[C@H]2O[C@@H](n3cnc4c(N)ncnc43)[C@H](F)[C@@H]2O1 (single isomer, unassigned) [Compound 57c]	13	–	–	–
CCC(C)(C)C(=O)OCOP1(=O)OC[C@H]2OC[C@@H](n3cnc4c(N)ncnc43)[C@@H]2OP(=O)(OCOC(=O)C(C)(C)CC)OC[C@H]2O[C@@H](n3cnc4c(N)ncnc43)[C@H](F)[C@@H]2O1 (single isomer, unassigned) [Compound 57d]	14	258	80	206
CCCCCCCC(=O)OCOP1(=O)OC[C@H]2OC[C@@H](n3cnc4c(N)ncnc43)[C@@H]2OP(=O)(OCOC(=O)CCCCCCC)OC[C@H]2O[C@@H](n3cnc4c(N)ncnc43)[C@H](F)[C@@H]2O1 (single isomer, unassigned) [Compound 58a]	5	–	–	–
CCCCCCCC(=O)OCOP1(=O)OC[C@H]2OC[C@@H](n3cnc4c(N)ncnc43)[C@@H]2OP(=O)(OCOC(=O)CCCCCCC)OC[C@H]2O[C@@H](n3cnc4c(N)ncnc43)[C@H](F)[C@@H]2O1 (single isomer, unassigned) [Compound 58b]	1	–	–	–
CCCCCCCC(=O)OCOP1(=O)OC[C@H]2OC[C@@H](n3cnc4c(N)ncnc43)[C@@H]2OP(=O)(OCOC(=O)CCCCCCC)OC[C@H]2O[C@@H](n3cnc4c(N)ncnc43)[C@H](F)[C@@H]2O1 (single isomer, unassigned) [Compound 58c]	2	–	–	–
CCCCCCCC(=O)OCOP1(=O)OC[C@H]2OC[C@@H](n3cnc4c(N)ncnc43)[C@@H]2OP(=O)(OCOC(=O)CCCCCCC)OC[C@H]2O[C@@H](n3cnc4c(N)ncnc43)[C@H](F)[C@@H]2O1 (single isomer, unassigned) [Compound 58d]	2	38	16	37
Nc1nc2c(ncn2[C@@H]2O[C@@H]3COP(=O)(O)O[C@@H]4[C@H](O)[C@@H](COP(=O)(O)O[C@@H]2[C@@H]3O)O[C@H]4n2cnc3c(N)ncnc32)c(=O)[nH]1 [2′2′-cGAMP, reference compound]	10200	–	–	–
